Results on nine compounds are retold here after patent publication US4939125A, “Acyl derivatives of urdamycin A, their preparation and their use” (Hoechst Aktiengesellschaft, priority 1986, dated 1990).

Values after ≈ are worked out from the molar mass of the structure shown.

What all share (type): cell-based
Experiment [1] concerns L 1210 leukemia cells. Nature of the experiment: In vitro cytostatic activity, colony formation (Hamburger and Salmon), 1-hour incubation. To be noted: L 1210, 1 hour incubation at 37° C., then washed and plated, carried out 4 times, deviation less than 15%; for IC50: Mus musculus, L1210, read-out: IC50, Strain test, 1 hour. The method, then: (§1) The experiment was carried out in accordance with the process of Hamburger and Salmon [New Engl. J. Med. 298, 1321-1327 (1978)]. The medium was replaced by McCoy 5A, and the number of cells was reduced to 5×10^2 cells/plate.
In the test, the cells were incubated at 37° C. for 1 hour at various concentrations of the test substance. The cells were then washed twice with McCoy 5A solution and subsequently applied to agar plates in accordance with the method of Hamburger and Salmon. The cells were subsequently cultivated as described above, and the number of cell colonies was determined (evaluation as in a).
(§2) The IC50 value for continuous and 1-hour incubation was determined from the dose/action curve.
(§3) In all cases, the experiments were carried out 4 times. The deviation in the results was less than 15%.

Experiment [2] concerns L 1210 tumor cells. In words: Proliferation experiment (MTT). The note with it: carried out 4 times, deviation less than 15%; for IC50: Mus musculus, L1210, L 1210, 72 hours at 37° C., read-out: IC50, Proliferation test. The method, then:
L 1210 tumor cells at the exponential growth phase (5×10^3 cells/ml, Roswell Park Memorial Institute (RPMI) medium) were incubated in a microtiter plate with […] recesses for a period of 72 hours at 37° C., 5% of CO2 and 95% relative atmospheric humidity and various concentrations of the test substances from Examples 1 to 5 and also 5',3B,4B,4C,8-penta-O-acetylurdamycin A. After 65 hours, 50 μl of 3-(4,5-dimethylthiazol-2-yl)-2,5-diphenyltetrazolium bromide (MTT) (2.5 mg/ml of MIT in phosphate buffer saline (PBS)) were added. The MTT was reduced by living cells into the red, water-insoluble dyestuff formazan. After a further 7 hours, the supernatant medium was carefully removed. Formazan was dissolved by adding 100 μl of dimethyl sulfoxide per recess and subsequently shaking gently. The extinction of each recess was determined using a multisan 340 CC photometer (Messrs. Flow) at 491 nm. The results were determined from the extinction ratio of cells with test substance to cells without test substance.
as §3

In experiment [3] the test system is L 1210 leukemia cells. Nature of the experiment: In vitro cytostatic activity, colony formation (Hamburger and Salmon), continuous incubation. To be noted: L 1210, continuous incubation, 5 to 7 days at 37° C., colonies from 60 μm, carried out 4 times, deviation less than 15%; for IC50: Mus musculus, L1210, read-out: IC50, Strain test, continuous. The method, then:
as §1
A continuous incubation of cells with various concentrations of the test substance from Examples 1 to 5 and 5',3B,4B,4C,8-penta-O-acetylurdamycin A was carried out. The compounds to be tested were applied to the agar plates before plating-out the cell cultures. The cell cultures then grew for 5 to 7 days in the incubation in an atmosphere of 5% of CO2, 20% of O2 and 95% relative atmospheric humidity at 37° C. After this time, the number of cell colonies having a diameter from 60 μm was determined (in %) relative to the number of cell colonies which had grown in comparison without test substance.
as §2, §3

Consider “3B,4B,8-tri-O-acetylurdamycin A [3B,4B,8-Tri-O-acetylu. A]”, for which the “IC50, Strain test, 1 hour” value in experiment [1] is 1.1 µg/mL. Moreover, the “IC50, Proliferation test” value in experiment [2] (L 1210, 72 hours at 37° C.) is below 1 µg/mL. Moreover, in experiment [3], the “IC50, Strain test, continuous” value came out at 0.4 µg/mL.
Consider `CC(=O)OC1CC(OC2CCC(OC3CC(c4ccc5c(c4O)C(=O)C4=C(C5=O)C5(OC6CCC(O)C(C)O6)C(=O)CC(C)(O)CC5(O)C=C4)OC(C)C3O)OC2C)OC(C)C1OC(C)=O` (stereo not drawn) [3B,4B-Di-O-acetylu. A, 3B,4B-di-O-acetylurdamycin A], for which the IC50 in experiment [1] is 0.35 µg/mL (≈ 0.377 µM); in experiment [2] it was below 1 µg/mL; in experiment [3], 0.11 µg/mL (≈ 0.118 µM).
Take `CC(=O)OC1CC(OC2CCC(OC3CC(c4ccc5c(c4O)C(=O)C4=C(C5=O)C5(OC6CCC(O)C(C)O6)C(=O)CC(C)(O)CC5(O)C=C4)OC(C)C3O)OC2C)OC(C)C1O` (stereo not drawn) [3B-O-Acetylurdamycin A, 3B-O-acetylurdamycin A]: the IC50 in experiment [1] is 2.2 µg/mL (≈ 2.48 µM); in experiment [2] it was below 1 µg/mL; in experiment [3], 0.28 µg/mL (≈ 0.316 µM).
Turning to `CCCCCCCC(=O)OC1CC(OC2CCC(OC3CC(c4ccc5c(c4O)C(=O)C4=C(C5=O)C5(OC6CCC(O)C(C)O6)C(=O)CC(C)(O)CC5(O)C=C4)OC(C)C3O)OC2C)OC(C)C1O` (stereo not drawn) [3B-O-Octanoylurdamycin A], the IC50 in experiment [1] was 0.26 µg/mL (≈ 0.268 µM); in experiment [2], below 1 µg/mL.
On to `CC(=O)OC1CCC(OC23C(=O)CC(C)(O)CC2(O)C=CC2=C3C(=O)c3ccc(C4CC(OC5CCC(OC6CC(O)C(OC(C)=O)C(C)O6)C(C)O5)C(O)C(C)O4)c(O)c3C2=O)OC1C` (stereo not drawn) [4B,4C-Di-O-acetylu. A, 4B,4C-di-O-acetylurdamycin A], for which the results for the IC50 in experiment [1], in experiment [2] and in experiment [3] were 0.85 µg/mL (≈ 0.915 µM), below 1 µg/mL and 0.13 µg/mL (≈ 0.14 µM), respectively.
Regarding `CCCCCCCC(=O)OC1C(O)CC(OC2CCC(OC3CC(c4ccc5c(c4O)C(=O)C4=C(C5=O)C5(OC6CCC(O)C(C)O6)C(=O)CC(C)(O)CC5(O)C=C4)OC(C)C3O)OC2C)OC1C` (stereo not drawn) [4B-O-Octanoylurdamycin A], the IC50 in experiment [1] was 0.09 µg/mL (≈ 0.0927 µM); in experiment [2], below 1 µg/mL.
On to `CC(=O)OC1CCC(OC23C(=O)CC(C)(O)CC2(O)C=CC2=C3C(=O)c3ccc(C4CC(OC5CCC(OC6CC(OC(C)=O)C(OC(C)=O)C(C)O6)C(C)O5)C(OC(C)=O)C(C)O4)c(O)c3C2=O)OC1C` (stereo not drawn) [5',3B,4B,4C-Tetra-O-acetylu. A, 5',3B,4B,4C-tetra-O-acetylurdamycin A], for which the IC50 in experiment [1] was 0.25 µg/mL (≈ 0.247 µM); in experiment [2] it was below 1 µg/mL; in experiment [3], 0.078 µg/mL (≈ 0.077 µM).
In the case of `CC(=O)Oc1c(C2CC(OC3CCC(OC4CC(OC(C)=O)C(OC(C)=O)C(C)O4)C(C)O3)C(OC(C)=O)C(C)O2)ccc2c1C(=O)C1=C(C2=O)C2(OC3CCC(O)C(C)O3)C(=O)CC(C)(O)CC2(O)C=C1` (stereo not drawn) [5',3B,4B,8-Tetra-O-acetylu. A, 5',3B,4B,8-tetra-O-acetylurdamycin A], the IC50 in experiment [2] is below 1 µg/mL; in experiment [3], 0.075 µg/mL (≈ 0.074 µM).
As to `CC(=O)Oc1c(C2CC(OC3CCC(OC4CC(OC(C)=O)C(OC(C)=O)C(C)O4)C(C)O3)C(OC(C)=O)C(C)O2)ccc2c1C(=O)C1=C(C2=O)C2(OC3CCC(OC(C)=O)C(C)O3)C(=O)CC(C)(O)CC2(O)C=C1` (stereo not drawn) [Penta-O-acetylu. A, 5',3B,4B,4C,8-penta-O-acetylurdamycin A, reference compound], the values for the IC50 in experiment [1], in experiment [2] and in experiment [3] were 0.12 µg/mL (≈ 0.114 µM), below 1 µg/mL and 0.042 µg/mL (≈ 0.0398 µM), respectively.
